# Assay results reported in publication PMC8728441, “Biosynthesis of the redox cofactor mycofactocin is controlled by the transcriptional regulator MftR and induced by long-chain acyl-CoA species” (The Journal of Biological Chemistry, 2021).
# Experiments:
# Design in all cases: species or system Mycobacterium smegmatis mc^2155
# MftR D16R = assay: ITC binding of oleoyl-CoA to MftR variant; settings: ND = not detected
# Description: (§1) Next, we examined which amino acid residues contribute to the interaction between MftR and oleoyl-CoA. The crystal structure of Msmeg MftR is currently unavailable; however, an unpublished structure of Rhodococcus jostii RHA1 MftR has been deposited in the Protein Data Bank (PDB) (PDB ID: 2RAE, 54% identical, Fig. S3). Using this structure, we employed SwissDock to model oleoyl-CoA bound to MftR (Fig. 5) ([41], [42]). From the docked structure, we identified eight conserved residues on MftR that were expected to create the acyl-binding pocket or bind CoA through electrostatic interactions. Following single amino acid replacements of the residues, we measured the Kd values of the mutant proteins to oleoyl-CoA using ITC. For the putative acyl-binding pocket residues Phe65, Phe96, and Ile114, mutations to alanine led to no or modest change to the Kd for oleoyl-CoA (Table 1). […] Conversely, when His68 was mutated to alanine, binding of oleoyl-CoA by the protein was undetectable. To validate this observation, competitive EMSAs were carried out using the H68A mutant. […] Thus, it is highly likely that His68 is an important residue for oleoyl-CoA binding. To evaluate residues that were expected to interact with CoA, Gln15, Asp16, Ser67, and Asp66 were targeted. Of these, mutants of Asp16 and Ser67 had the greatest effect (Table 1). […] This latter observation was validated using competitive EMSAs (Fig. S4B). […] Taken together, it is likely that Ser67 and Asp16 participate in oleoyl-CoA binding, likely through electrostatic interactions.
# (§2) Mutant strand synthesis reactions were performed according to the Agilent QuikChange site-directed mutagenesis protocol. The mftR_pET28a plasmid was used as a template for site-directed mutagenesis studies. Sequence-verified plasmids were transformed into E. coli BL21(DE3) pLysS cells for protein production and purified using the same protocol as wildtype MftR.
# (§3) ITC was performed using TA Nano ITC. MftR was loaded in the sample cell at the concentration of 16 and 250 μM acyl-CoAs (C12–C18) loaded in the syringe. To minimize the effect of buffer mismatch, the stock concentration of acyl-CoAs was prepared using ITC buffer (50 mM Hepes, 50 mM NaCl, and pH 7.5), and the pH was adjusted to within 0.05 units. In addition, MftR was buffer exchanged into ITC buffer using a PD-10 column (GE Life Sciences). The volume of the titrant added at each injection into the sample cell was 2.22 μl. The time interval between the successive injections was 180 s. The temperature of the cell was kept at 25 °C. The data obtained were fit by independent one-site model using NanoAnalyze Data Analysis, version 3.8.0, that was provided with the instrument.
# MftR Q15A = molecular target: T1, MftR Q15A (Mycolicibacterium smegmatis, UniProt A0QSB5, Q15A); assay: ITC binding of oleoyl-CoA to MftR variant
# T1 sequence (A0QSB5 1-200 Q15A): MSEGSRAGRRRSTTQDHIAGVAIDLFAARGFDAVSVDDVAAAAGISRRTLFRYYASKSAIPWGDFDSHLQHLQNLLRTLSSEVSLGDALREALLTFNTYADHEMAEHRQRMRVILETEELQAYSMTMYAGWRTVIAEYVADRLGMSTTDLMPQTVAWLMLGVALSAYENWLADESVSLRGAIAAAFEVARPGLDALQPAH
# Description: as §1, §2, §3
# MftR F96A = molecular target: T2, MftR F96A (Mycolicibacterium smegmatis, UniProt A0QSB5, F96A); assay: ITC binding of oleoyl-CoA to MftR variant
# T2 sequence (A0QSB5 1-200 F96A): T1 sequence (A0QSB5 1-200 Q15A)
# Description: as §1, §2, §3
# MftR I114A = molecular target: T3, MftR I114A (Mycolicibacterium smegmatis, UniProt A0QSB5, I114A); assay: ITC binding of oleoyl-CoA to MftR variant
# T3 sequence (A0QSB5 1-200 I114A): T1 sequence (A0QSB5 1-200 Q15A)
# Description: as §1, §2, §3
# MftR F65A = molecular target: T4, MftR F65A (Mycolicibacterium smegmatis, UniProt A0QSB5, F65A); assay: ITC binding of oleoyl-CoA to MftR variant
# T4 sequence (A0QSB5 1-200 F65A): T1 sequence (A0QSB5 1-200 Q15A)
# Description: as §1, §2, §3
# MftR S67W [1] = assay: ITC binding of oleoyl-CoA to MftR variant; settings: S67W mutation vs WT, ITC
# Description: as §1, §2, §3
# MftR D16W = molecular target: T5, MftR D16W (Mycolicibacterium smegmatis, UniProt A0QSB5, D16W); assay: ITC binding of oleoyl-CoA to MftR variant
# T5 sequence (A0QSB5 1-200 D16W): T1 sequence (A0QSB5 1-200 Q15A)
# Description: as §1, §2, §3
# MftR S67A = molecular target: T6, MftR S67A (Mycolicibacterium smegmatis, UniProt A0QSB5, S67A); assay: ITC binding of oleoyl-CoA to MftR variant
# T6 sequence (A0QSB5 1-200 S67A): T1 sequence (A0QSB5 1-200 Q15A)
# Description: as §1, §2, §3
# MftR H68A = assay: ITC binding of oleoyl-CoA to MftR variant; settings: ND = not detected
# Description: as §1, §2, §3
# MftR D66A = molecular target: T7, MftR D66A (Mycolicibacterium smegmatis, UniProt A0QSB5, D66A); assay: ITC binding of oleoyl-CoA to MftR variant
# T7 sequence (A0QSB5 1-200 D66A): T1 sequence (A0QSB5 1-200 Q15A)
# Description: as §1, §2, §3
# MftR S67W [2] = molecular target: T8, MftR S67W (Mycolicibacterium smegmatis, UniProt A0QSB5, S67W); assay: ITC binding of oleoyl-CoA to MftR variant
# T8 sequence (A0QSB5 1-200 S67W): T1 sequence (A0QSB5 1-200 Q15A)
# Description: as §1, §2, §3
# MftR (WT) = MftR (WT) (Mycolicibacterium smegmatis, UniProt A0QSB5); assay: ITC binding of acyl-CoAs to MftR
# Method: as §3
compound,measurement,setting,value
CCCCCCCC/C=C\CCCCCCCC(=O)SCCNC(=O)CCNC(=O)[C@H](O)C(C)(C)COP(=O)(O)OP(=O)(O)OC[C@H]1O[C@@H](n2cnc3c(N)ncnc32)[C@H](O)[C@@H]1OP(=O)(O)O [oleoyl-CoA],Kd,MftR D16R,no longer detectable
same,Kd,MftR Q15A,2 ± 0.1 µM
same,Kd,MftR F96A,1.4 ± 0.1 µM
same,Kd,MftR I114A,2.4 ± 0.1 µM
same,Kd,MftR F65A,1.9 ± 0.1 µM
same,increase in the Kd value for oleoyl-CoA,MftR S67W [1],eightfold increase
same,Kd,MftR D16W,4.8 ± 0.2 µM
same,Kd,MftR S67A,5.4 ± 0.2 µM
same,Kd,MftR H68A,undetectable
same,Kd,MftR D66A,1.6 ± 0.1 µM
same,Kd,MftR S67W [2],8.3 ± 0.2 µM
same,Kd,MftR (WT),1.4 ± 0.1 µM
same,number of binding sites,"MftR (WT); ITC, WT MftR, one-site model",~0.6 sites per monomer MftR
